Measurements: PMC8636514, “Therapeutic potential of TRPM8 antagonists in prostate cancer” (Scientific Reports, 2021)

How the values were obtained:
TRPM8 = experiment: Western blot of TRPM8 in LNCaP lysate proteins; assay type: cell-based, human; conditions: for TRPM8 in lysates, Average (n=3): Fig 6d upper panel
Description: (§1) All performed as reported. The mouse monoclonal anti-AR (441; Santa Cruz) antibody was used in Co-Ip or WB approaches. TRPM8 was detected using the rabbit polyclonal anti-TRPM8 (NBP1-97311; Novus Biological). […] The rabbit polyclonal anti-ERK (C-14; Santa Cruz), antibody was used to detect total ERK. FAK and P-Tyr397 FAK were detected using the mouse monoclonal anti-FAK (Clone 77/610077 BD Transduction Laboratories) or anti P-Tyr397 FAK (Clone 14/611722; BD Transduction Laboratories) antibodies, respectively. P-Tyr118 paxillin and total paxillin were detected using the rabbit polyclonal anti-P-Y118 (#2541, Cell Signaling) or the mouse monoclonal anti-paxillin (clone 349; BD Biosciences) antibodies, respectively. […] P-Tyr 416 Src and Src were detected using the rabbit monoclonal anti P-Tyr 416 Src (#6943; Cell Signaling) or the mouse monoclonal anti Src (Calbiochem) antibodies, respectively. ERα and ERβ were detected using the rabbit polyclonal anti-ERα (543; Santa Cruz) or anti-ERβ (Upstate Biotechnology, U.S.A.) antibodies. Cyclin D1, p27 and Cdk4 were stained using the mouse monoclonal anti-cyclin D1 (clone AM29; from Zymed Laboratories Inc.), the rabbit polyclonal anti-p27 (C-19; Santa Cruz) or anti Cdk-4 (c-22; Santa Cruz) antibodies, respectively. The mouse monoclonal anti-tubulin (Sigma-Aldrich) antibody was used to detect tubulin. The ECL system (GE Healthcare) was employed to reveal immune-reactive proteins. Densitometric analysis of WB was performed by using Image J Software (https://imagej.nih.gov/ij).

AR/TRPM8 complex = biological target: T1, AR/TRPM8 complex (Homo sapiens, UniProt Q7Z2W7); experiment: Co-IP of AR with TRPM8 in LNCaP cells; assay type: cell-based; conditions: for androgen-induced Co-IP of AR with TRPM8: 10 nM R1881, 10 min, compound 1 μM; for AR in IP anti-AR, Average (n=3) / TRPM8 in IP anti-AR, Average (n=3): Fig 6d lower panel; for AR, Average (n=3) / TRPM8, Average (n=3): Fig 6e, R1881 alone
T1 construct: We here dissected an endogenous non-genomic mechanism of the TRPM8 channel regulation by androgens in PC cells; endogenous in cells; host or cells: LNCaP cells
Description: as §1

LNCaP cells [1] = experiment: Invasion assay in Matrigel, LNCaP cells; assay type: cell-based, human; conditions: for androgen-induced invasion: 10 nM R1881, compound 1 μM; for invasion in the absence of hormone: compound 1 μM alone
Protocol: In wound scratch analysis, 1.8 × 10^5 cells were seeded in a 24-well plate and made quiescent. Cells were then wounded using 10 µl sterile pipette tips and washed with PBS. They were left un-stimulated or stimulated for the indicated times, in the absence or presence of the selected compounds. To avoid cell proliferation, cytosine arabinoside (Sigma-Aldrich) at 50 μM (final concentration) was included in the cell medium. Different fields were analysed by contrast-phase microscopy, as below described in this section. Migration and invasion assays were done as reported. In migration assay, we used 3 × 10^4 cells in collagen pre-coated Boyden’s chambers with 8 μm polycarbonate membrane (Falcon). The indicated stimuli were added to the upper and the lower chambers. Cytosine arabinoside (at 50 μM) was included in the cell medium. After 7 h, non-migrating cells from the membrane upper surface were removed using a sterile cotton swab. In invasion assay, we used 5 × 10^4 cells in Boyden’s chambers with 8 μm polycarbonate membrane (Falcon) pre-coated with growth factor reduced- and phenol red-free Matrigel (Corning). The indicated stimuli were added to the upper and the lower chambers. Cytosine arabinoside (at 50 μM) was included in the cell medium. After 24 h, non-invading cells from the membrane upper surface were removed using a sterile cotton swab. In migration and invasion assays, the membranes were fixed for 20 min in 4% paraformaldehyde, stained with Hoechst (Sigma-Aldrich), removed with forceps from the companion plate and mounted. Migrating and invading cells were scored by fluorescence microscopy, as below described in this section.
(§2) In wound scratch assay, different fields were analysed using DMIRB inverted microscope (Leica) equipped with N-Plan 10 × objective (Leica), as reported. LNCaP organoids were analysed using the same microscope equipped with C-Plan 40 × or HCX PL Fluotar 63 × objectives (Leica). Images were captured using a DFC 450C camera (Leica) and acquired using the Application Suite Software (Leica). They are representative of three different experiments. The relative organoid size was calculated using the same software and expressed as a fold increase over the basal organoid size (measured at 3th day). The wound gap was calculated using Image J Software and expressed as % of the decrease in the wound area. Migrating or invading cells from at least 30 fields/each membrane were scored, using a DMLB (Leica) fluorescent microscope, equipped with HCPL Fluotar 20 × objective.

LNCaP cells [2] = experiment: DNA synthesis (BrdU incorporation) in LNCaP cells; assay type: cell-based, human; conditions: for effect on DNA synthesis stimulated by R1881: 1 nM R1881, compound 1 μM; for inhibitory effect on R1881-stimulated DNA synthesis, compared with 3 and 5: 10 nM R1881, compound 1 μM
Protocol: […] Cells were fixed, permeabilized, washed and the BrdU incorporation was analysed as reported. Nuclei were stained with Hoechst and cells on coverslips were scored by IF microscopy, using a DMLB Leica (Leica) fluorescent microscope, equipped with HCX PL Apo 63 × oil objective. Different fields from each coverslip were analyzed and BrdU incorporation was calculated by the formula: percentage of BrdU-positive cells = (No. of BrdU-positive cells/No. of total cells) × 100. Data in the graphs derive from at least 1000 scored cells for each coverslip. Representative images were captured using DC480 camera (Leica) and acquired using Leica Suite software. They are representative of three different experiments.

LNCaP cell spheroids = experiment: 3D culture in ECM, LNCaP cell spheroid size; assay type: cell-based, human; conditions: for androgen-induced increase of spheroid size / spheroid size in the absence of hormone: 15 days; for spheroid size in the absence of hormone: compound 1 μM alone
Protocol: LNCaP cell spheroids were generated as reported. Briefly, 2 × 10^4 LNCaP cells were mixed with 200 μL of phenol-red free growth factor-reduced Matrigel and 50 μL of organoid plating medium in each well. The mixture was pipetted in 24-well plate and allowed to solidify for 45 min at 37 °C, before the addition of 400 μL organoid plating-medium, which was made using phenol red-free DMEM/F12 medium, containing 7% CSS, penicillin (100 U/mL), streptomycin (100 U/mL), diluted GlutaMAX 100X (Gibco), 10 mM Hepes, B27 supplement (50 × stock solution; Thermofisher, Waltham, Massachusetts, USA), […] nicotinamide (Sigma-Aldrich), […] N-acetylcysteine (Sigma-Aldrich) and 10 μM Y-27632 (Millipore, Burlington, MA, USA). After 3 days, the organoid-plating medium was replaced with a similar medium in the absence of N-acetylcysteine and Y-27632. At the 3rd day, spheroids/organoids were untreated or treated with the indicated compounds. The medium was changed every 3 days and fields were analyzed by phase-contrast microscopy.
as §2

p27 = experiment: Western blot of p27 in LNCaP cells; assay type: cell-based, human; conditions: for P27, fold increase over the basal level: 15 h; for androgen-induced p27 down-regulation: R1881, compound 1 μM
Description: as §1

[3] = 1 nM R1881 + compound 1 μM, Fig 2e-f
[4] = fourth group of list (probably IP anti-AR)

T1 sequence (Q7Z2W7 whole entry, one chain of several): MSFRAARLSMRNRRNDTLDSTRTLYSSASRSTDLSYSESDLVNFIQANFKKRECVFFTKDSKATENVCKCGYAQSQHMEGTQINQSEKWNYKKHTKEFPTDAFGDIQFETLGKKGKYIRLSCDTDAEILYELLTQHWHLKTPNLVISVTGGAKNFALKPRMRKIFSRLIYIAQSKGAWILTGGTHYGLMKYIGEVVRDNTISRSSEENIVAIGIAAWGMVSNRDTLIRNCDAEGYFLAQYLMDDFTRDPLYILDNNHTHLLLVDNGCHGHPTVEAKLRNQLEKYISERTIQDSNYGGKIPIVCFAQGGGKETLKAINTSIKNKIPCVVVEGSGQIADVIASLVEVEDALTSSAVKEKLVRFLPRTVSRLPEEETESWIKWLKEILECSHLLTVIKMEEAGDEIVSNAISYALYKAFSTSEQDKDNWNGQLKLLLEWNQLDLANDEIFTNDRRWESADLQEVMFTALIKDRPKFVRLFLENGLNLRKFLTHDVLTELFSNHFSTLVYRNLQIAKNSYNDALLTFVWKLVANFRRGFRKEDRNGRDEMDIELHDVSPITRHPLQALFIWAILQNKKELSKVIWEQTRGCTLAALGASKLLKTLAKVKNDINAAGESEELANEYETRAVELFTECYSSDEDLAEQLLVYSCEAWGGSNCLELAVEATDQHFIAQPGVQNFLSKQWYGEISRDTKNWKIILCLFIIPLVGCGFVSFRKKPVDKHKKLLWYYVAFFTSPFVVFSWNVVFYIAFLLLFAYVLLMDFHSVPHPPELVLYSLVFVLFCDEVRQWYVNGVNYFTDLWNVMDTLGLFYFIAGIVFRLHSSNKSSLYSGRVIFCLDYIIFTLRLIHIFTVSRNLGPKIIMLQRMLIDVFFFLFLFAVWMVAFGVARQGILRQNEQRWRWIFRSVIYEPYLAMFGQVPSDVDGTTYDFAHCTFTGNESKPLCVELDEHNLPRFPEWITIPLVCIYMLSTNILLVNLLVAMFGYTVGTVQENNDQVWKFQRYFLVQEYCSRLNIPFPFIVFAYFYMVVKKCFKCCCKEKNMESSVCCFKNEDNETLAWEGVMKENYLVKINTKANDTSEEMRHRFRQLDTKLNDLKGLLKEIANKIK

c1ccc(COc2ccc3[nH]cc(CCNCc4ccc(Oc5ccccc5)cc4)c3c2)cc1 [Compound 4]
TRPM8 in lysates, Average (n=3) (TRPM8; 10 nM R1881 + compound 1 μM): 1 | TRPM8 in lysates, Average (n=3) (TRPM8; compound 1 μM alone): 1 | androgen-induced Co-IP of AR with TRPM8 (AR/TRPM8 complex): abolished this association | AR in IP anti-AR, Average (n=3) (AR/TRPM8 complex; 10 nM R1881 + compound 1 μM): 1,1 | TRPM8 in IP anti-AR, Average (n=3) (AR/TRPM8 complex; 10 nM R1881 + compound 1 μM): 0,7 | AR in IP anti-AR, Average (n=3) (AR/TRPM8 complex; compound 1 μM alone): 1,1 | TRPM8 in IP anti-AR, Average (n=3) (AR/TRPM8 complex; compound 1 μM alone): 0,3 | AR/TRPM8 complex assembly in the absence of hormone (AR/TRPM8 complex; compound 1 μM alone): did not affect | androgen-induced invasion (LNCaP cells [1]): reversed | invasion in the absence of hormone (LNCaP cells [1]): negligible effect | effect on DNA synthesis stimulated by R1881 (LNCaP cells [2]): reverted | inhibitory effect on R1881-stimulated DNA synthesis, compared with 3 and 5 (LNCaP cells [2]): stronger | androgen-induced increase of spheroid size (LNCaP cell spheroids; 1 nM R1881, compound 1 µM): reverted | androgen-induced increase of spheroid size (LNCaP cell spheroids; 10 nM R1881, compound 1 μM): abolished | spheroid size in the absence of hormone (LNCaP cell spheroids): leaving unaffected | P27, fold increase over the basal level (p27; [3]): 1,1 fold | androgen-induced p27 down-regulation (p27): significantly impair

C[C@]1(O)CC[C@H]2[C@@H]3CCC4=CC(=O)CCC4=C3C=C[C@@]21C [Compound R1881, reference compound]
amount of TRPM8 (Western blot) (TRPM8; 10 nM R1881, 24 h, quiescent LNCaP cells): very weakly increased | TRPM8, Average (n=3) (TRPM8; Fig 6e, R1881 alone): 1 | TRPM8 in lysates, Average (n=3) (TRPM8; 10 nM R1881 alone, 10 min): 0,9 | AR, Average (n=3) (AR/TRPM8 complex; [4]): 1 | TRPM8, Average (n=3) (AR/TRPM8 complex; [4]): 3,1 | AR, Average (n=3) (AR/TRPM8 complex; second group of list): 0,1 | TRPM8, Average (n=3) (AR/TRPM8 complex; second group of list): 0,1 | AR, Average (n=3) (AR/TRPM8 complex; third group of list): 1 | TRPM8, Average (n=3) (AR/TRPM8 complex; third group of list): 0 | AR in IP anti-AR, Average (n=3) (AR/TRPM8 complex; 10 nM R1881 alone, 10 min): 1 | TRPM8 in IP anti-AR, Average (n=3) (AR/TRPM8 complex; 10 nM R1881 alone, 10 min): 2,9 | increase in number of invading cells in Matrigel (LNCaP cells [1]; 10 nM R1881 alone): 1,6 folds | increase of the DNA synthesis (LNCaP cells [2]; 1 nM R1881 alone): ~2 folds | increase in BrdU incorporation (LNCaP cells [2]; 10 nM R1881 alone): ~3,5 folds | response on spheroid size (LNCaP cell spheroids; 1 nM R1881 alone): only a weak response | P27, fold increase over the basal level (p27; 1 nM R1881 alone, Fig 2e): 0,6 fold | P27, fold increase over the basal level (p27; 1 nM R1881 alone, Fig 2f): 0,6 fold | P27, fold increase over the basal level (p27; 10 nM R1881 alone, Fig 2d): 0,4 fold

COC(=O)[C@H](Cc1c[nH]c2ccccc12)N(Cc1ccccc1)Cc1ccccc1 [Compound 6]
TRPM8 in lysates, Average (n=3) (TRPM8; 10 nM R1881 + compound 1 μM): 1 | TRPM8 in lysates, Average (n=3) (TRPM8; compound 1 μM alone): 1,1 | androgen-induced Co-IP of AR with TRPM8 (AR/TRPM8 complex): abolished this association | AR in IP anti-AR, Average (n=3) (AR/TRPM8 complex; 10 nM R1881 + compound 1 μM): 1 | TRPM8 in IP anti-AR, Average (n=3) (AR/TRPM8 complex; 10 nM R1881 + compound 1 μM): 0,6 | AR in IP anti-AR, Average (n=3) (AR/TRPM8 complex; compound 1 μM alone): 1,1 | TRPM8 in IP anti-AR, Average (n=3) (AR/TRPM8 complex; compound 1 μM alone): 0,3 | AR/TRPM8 complex assembly in the absence of hormone (AR/TRPM8 complex; compound 1 μM alone): did not affect | androgen-induced invasion (LNCaP cells [1]): reversed | invasion in the absence of hormone (LNCaP cells [1]): negligible effect | effect on DNA synthesis stimulated by R1881 (LNCaP cells [2]): reverted | inhibitory effect on R1881-stimulated DNA synthesis, compared with 3 and 5 (LNCaP cells [2]): stronger | androgen-induced increase of spheroid size (LNCaP cell spheroids; 1 nM R1881, compound 1 µM): reverted | androgen-induced increase of spheroid size (LNCaP cell spheroids; 10 nM R1881, compound 1 μM): abolished | spheroid size in the absence of hormone (LNCaP cell spheroids): leaving unaffected | P27, fold increase over the basal level (p27; [3]): 1 fold | P27, fold increase over the basal level (p27; 10 nM R1881 + compound 1 μM, Fig 2d): 1,1 fold | androgen-induced p27 down-regulation (p27): significantly impair
